Data taken from patent US8575116B1, “Polyacetylenic compounds for protecting against pancreatic islet atrophy” (Academia Sinica, priority 2010, dated 2013).

Columns and labels:
db/db mice [1] = assay: Glycosylated HbA1c in db/db mice after long-term treatment; type: in vivo, mouse
Description: FIGS. 1A-F show the anti-diabetic effects of cytopiloyne in db/db mice during long-term treatment. (A) Chemical structure of cytopiloyne (2-β-D-glucopyranosyloxy-1-hydroxytrideca-5,7,9,11-tetrayne). (B) Four groups of 6-to-8-week-old diabetic db/db mice were tube-fed with vehicle, cytopiloyne (CP, 0.5 and 2.5 mgkg^−1 day^−1) or glimepiride (GLM, 2.5 mgkg^−1 day^−1) from 0 to 42 days post-treatment. Blood glucose (BG) levels in these mice were measured. (C) Blood insulin levels from the mice of FIG. 1B. (D) IPGTT was performed in the db/db mice of FIG. 1B on day 0, 28 and 42, and blood glucose levels were monitored for 3.5 h. (E) The percentage of glycosylated HbAlc of whole blood from the mice of FIG. 1B on day 0 and 42. (F) Pancreata of 8- and 16-week-old db/db males, which had received the same treatment as FIG. 1B for 2 (images a-h) and 10 (images i-p) weeks, were stained with hematoxylin and eosin (H&E, images a, c, e, g, i, k, m and o) or hematoxylin and anti-insulin (H&I, images b, d, f, h, j, l, n and p). The arrowheads indicate pancreatic islets. Scale bars, 200 μm. Results from 3 independent experiments are expressed as mean±SEM, and P<0.05 was considered to be statistically significant (*). The number of mice (n) is indicated in parentheses.
(§1) After 0.5 h, the levels of postprandial blood sugar and insulin from the mice were monitored for additional 4 h. For continued administration, diabetic db/db males were grouped and tube-fed with vehicle, cytopiloyne (0.5 or 2.5 mgkg^−1 day^−1) or glimepiride (2.5 mg kg^−1 day^−1) for the indicated time, while levels of blood sugar, insulin, and glycosylated HbA1c, and glucose tolerance in these mice were determined. To evaluate the prophylaxis of diabetes, diabetes-free db/db mice at 4 weeks of age were tube-fed with vehicle or cytopiloyne (CP, 0.5 mgkg^−1), once a day, for 4 weeks. Unless indicated otherwise, the mice were fasted for 16 h, then Postprandial blood glucose and insulin in these mice were measured.
(§2) Glucose levels in mouse blood samples were measured using an Elite® glucometer (Bayer, Pittsburgh, Pa., USA). Insulin levels in blood samples or islet cell supernatants were determined by ELISA assays (Mercodia, Uppsala, Sweden). The levels of glycosylated HbA1c in mouse blood samples were measured using DCA 2000 analyzer (Bayer, Pittsburgh, Pa., USA).

db/db mice [2] = assay: Blood insulin after a single oral dose in fed diabetic db/db mice; type: in vivo, mouse; settings: for blood insulin levels compared to vehicle, effect in words: single dose, db/db mice; for Blood insulin level: fed db/db mice
Description: as §1, §2
The same procedure as Table 1 was performed. Blood samples at the indicated time interval (0, 0.5, 1, 2, and 4 h) were collected from the retro-orbital vein of those mice and the insulin levels in each blood sample were determined using ELISA kits. The number of mice used (n) is indicated in parentheses in the first column.

[3] = test system: human insulin promoter in HIT-T15 β-cells; assay: Insulin promoter (phINS-Luc) dual luciferase assay in HIT-T15 β-cells; type: cell-based, rat
Description: FIGS. 4A-C show an increase in insulin mRNA and protein content by cytopiloyne in pancreatic islet cells. (A) HIT-T15 β-cells transfected with phINS-Luc and pRL-TK plasmids were incubated with vehicle (NS), glimepiride (GLM, 10 μM), high glucose (HG, 16.7 mM) or cytopiloyne at 7, 14 or 28 μM. Ten μg of cell lysates from these cells underwent to dual luciferase assays. […] (C) Rat pancreatic islet cells were treated with vehicle, glucose (3.3 mM (LG) or 16.7 mM (HG)) or cytopiloyne (CP, 7, 14 and 28 μM) in the presence of brefeldin A for 24 h. After anti-insulin antibody staining, these cells underwent FACS analysis. The percentage of insulin-positive β-cells is shown. All the results from 3 independent experiments are expressed as mean±SEM, and P<0.05 was considered to be statistically significant (*).
(A) RIN-M5F cells were grown in medium with 16.7 mM (HG) or 3.3 mM glucose (LG) in the presence of PMA. GF and cytopiloyne. The insulin level of the supernatants was determined using an ELISA kit. (B) RIN-M5F cells were transfected with 5 μg of dominant-negative PKCα or control plasmid grown in medium with 16.7 mM (HG) or 3.3 mM glucose (LG) in the presence of PMA (1 μM), GF109203X (3 μM) or cytopiloyne. The insulin level of the supernatants was determined using an ELISA kit. (C) HIT-T15 cells were transfected with phINS-Luc and pRL-TK plasmids. The cells were grown in medium with 16.7 mM (HG) or 3.3 mM glucose (LG) in the absence or presence of PMA, GF109203X and cytopiloyne. The cell lysates were subjected to dual luciferase assays. (D) HIT-T15 cells were transfected with vehicle or dominant-negative PKCα plasmid together with phINS-Luc and pRL-TK plasmids. The cells were grown in medium with 16.7 mM (HG) or 3.3 mM glucose (LG) in the absence or presence of PMA and cytopiloyne. The cell lysates were subjected to dual luciferase assays.
Plasmids phINS-Luc and pRL-TK contain a human insulin promoter (2347 bp) from phINS-DCR3 vector linked to a firefly luciferase gene and the thymidine kinase promoter linked to Renilla luciferase reporter gene, respectively. Dominant-negative PKCα, phINS-Luc and/or pRL-TK were transfected into HIT-T15 cells with lipofectamine or electroporation.

[4] = Body weight of db/db mice during treatment; type: in vivo, mouse
Description: Tables 3 and 4 show the effects of cytopiloyne on body weight and food intake in db/db mice, respectively. Diabetic db/db mice at 6 to 8 weeks of age were allowed free access to food. These mice were treated with vehicle, glimepiride (GLM, 2.5 mg/kg/day), or cytopiloyne (CP, 0.5 and 2.5 mg/kg/day). Mean body weight and food intake of each group were measured from 0 to 6 weeks post-treatment. The number of mice (n) is indicated in parentheses.

[5] = 2.5 mgkg^−1 day^−1, day 42, db/db mice 12 to 14 weeks of age (untreated 7.3%)
[6] = 2.5 mgkg^−1 day^−1, versus untreated db/db mice
[7] = single oral dose 2.5 mg/kg, 0 h
[8] = single oral dose 2.5 mg/kg, 0.5 h
[9] = single oral dose 2.5 mg/kg, 1 h
[10] = single oral dose 2.5 mg/kg, 2 h
[11] = single oral dose 2.5 mg/kg, 4 h

SMILES	HbA1c glycosylated in the blood (db/db mice [1]; [5]) [%]	decrease of glycosylated HbA1c (db/db mice [1]; [6]) [%]	blood insulin levels compared to vehicle, effect in words (db/db mice [2])	Blood insulin level (db/db mice [2]; [7]) [µg/L]	Blood insulin level (db/db mice [2]; [8]) [µg/L]	Blood insulin level (db/db mice [2]; [9]) [µg/L]	Blood insulin level (db/db mice [2]; [10]) [µg/L]	Blood insulin level (db/db mice [2]; [11]) [µg/L]	Mean body weight ([4]; 2.5 mg/kg/day, week 0) [g/mouse]	Mean body weight ([4]; 2.5 mg/kg/day, week 1) [g/mouse]	Mean body weight ([4]; 2.5 mg/kg/day, week 2) [g/mouse]	Mean body weight ([4]; 2.5 mg/kg/day, week 4) [g/mouse]	Mean body weight ([4]; 2.5 mg/kg/day, week 6) [g/mouse]	other results
CC#CC#CC#CC#CCCC(CO)O[C@@H]1O[C@H](CO)[C@@H](O)[C@H](O)[C@H]1O (stereo partly drawn) [cytopiloyne, 2-β-D-glucopyranosyloxy-1-hydroxytrideca-5,7,9,11-tetrayne]	5.6	1.7	significantly elevated the blood insulin levels	12.5 ± 1.2	25.5 ± 1.2	18.9 ± 3.3	17.6 ± 1.7	8.9 ± 2.1	27.1 ± 2.4	30.0 ± 2.5	31.7 ± 1.5	33.3 ± 4.1	36.4 ± 3.7	HbA1c glycosylated in the blood (db/db mice [1]; 0.5 mgkg^−1 day^−1, day 42, db/db mice 12 to 14 weeks of age (untreated 7.3%)): 6%; decrease of glycosylated HbA1c (db/db mice [1]; 0.5 mgkg^−1 day^−1, versus untreated db/db mice): 1.3%; Blood insulin level (db/db mice [2]; single oral dose 0.1 mg/kg, 0 h): 17.2 ± 4.7 µg/L; Blood insulin level (db/db mice [2]; single oral dose 0.1 mg/kg, 0.5 h): 21.0 ± 1.3 µg/L; Blood insulin level (db/db mice [2]; single oral dose 0.1 mg/kg, 1 h): 15.5 ± 0.6 µg/L; Blood insulin level (db/db mice [2]; single oral dose 0.1 mg/kg, 2 h): 14.1 ± 0.5 µg/L; Blood insulin level (db/db mice [2]; single oral dose 0.1 mg/kg, 4 h): 9.7 ± 1.3 µg/L; Blood insulin level (db/db mice [2]; single oral dose 0.5 mg/kg, 0 h): 15.7 ± 1.9 µg/L; Blood insulin level (db/db mice [2]; single oral dose 0.5 mg/kg, 0.5 h): 22.6 ± 1.9 µg/L; Blood insulin level (db/db mice [2]; single oral dose 0.5 mg/kg, 1 h): 16.0 ± 2.4 µg/L; Blood insulin level (db/db mice [2]; single oral dose 0.5 mg/kg, 2 h): 12.8 ± 0.7 µg/L; Blood insulin level (db/db mice [2]; single oral dose 0.5 mg/kg, 4 h): 12.2 ± 1.9 µg/L; insulin transcription (reporter), fold increase ([3]; 28 μM, HIT-T15 β-cells, 24 h): 5 times; insulin transcription in HIT-T15 cells ([3]; FIG. 6C, glucose 16.7 mM): stimulated insulin transcription; Mean body weight ([4]; 0.5 mg/kg/day, week 0): 28.2 ± 3.0 g/mouse; Mean body weight ([4]; 0.5 mg/kg/day, week 1): 29.7 ± 3.1 g/mouse; Mean body weight ([4]; 0.5 mg/kg/day, week 2): 32.3 ± 3.3 g/mouse; Mean body weight ([4]; 0.5 mg/kg/day, week 4): 34.1 ± 2.9 g/mouse; Mean body weight ([4]; 0.5 mg/kg/day, week 6): 34.8 ± 2.8 g/mouse; body weight compared to control mice, in words ([4]; 6-week-treatment): did not significantly increase body weight
CCC1=C(C)CN(C(=O)NCCc2ccc(S(=O)(=O)NC(=O)N[C@H]3CC[C@H](C)CC3)cc2)C1=O [glimepiride, reference compound]	6.3	1	significantly elevated the blood insulin levels	13.9 ± 1.2	19.3 ± 4.2	26.3 ± 3.3	15.9 ± 1.7	11.8 ± 2.1	26.9 ± 1.2	30.3 ± 2.7	30.7 ± 3.0	35.2 ± 1.8	36.3 ± 2.1	insulin transcription (reporter) compared to the control ([3]; 10 μM, HIT-T15 β-cells, 24 h): no significant effect on insulin transcription
